{"source": "ChEMBL document CHEMBL1153714", "about": "“Isolation and characterization of tirandamycins from a marine-derived Streptomyces sp” (2009)"}
{"tested_on": "Enterococcus faecalis", "assay": "Antibacterial activity against vancomycin-resistant Enterococcus faecalis after 16 hrs by microtiter plate assay", "format": "functional", "units": {"MIC": "µM"}}
{"smiles": "CC1=CC[C@H]2O[C@]1(C)O[C@H]([C@H](C)/C=C(C)/C=C/C(O)=C1/C(=O)CNC1=O)[C@H]2C", "note": "[TIRANDAMYCIN C]", "MIC": 110}
{"smiles": "CC1=CC(=O)[C@H]2O[C@]1(C)O[C@H]([C@H](C)/C=C(C)/C=C/C(O)=C1/C(=O)CNC1=O)[C@H]2C", "note": "[TIRANDAMYCIN D]", "MIC": "> 9"}
{"smiles": "CC(/C=C/C(O)=C1/C(=O)CNC1=O)=C\\[C@@H](C)[C@H]1O[C@@]2(C)O[C@H](C(=O)[C@H]3O[C@]32CO)[C@@H]1C", "note": "[TIRANDAMYCIN B]", "MIC": 100}
{"smiles": "CC(/C=C/C(O)=C1/C(=O)CNC1=O)=C\\[C@@H](C)[C@H]1O[C@@]2(C)O[C@H](C(=O)[C@H]3O[C@]32C)[C@@H]1C", "note": "[TIRANDAMYCIN A]", "MIC": 2.25}
